Consider 22 compounds from patent publication US20210317092A1 (BAYER PHARMA AKTIENGESELLSCHAFT, priority 2016, published 2021).

The first assay has as its target T1, human Bradykinin B1 receptor (Homo sapiens, UniProt P46663).
T1 construct: host or cells: CHO-K1
T1 sequence (P46663 1-353): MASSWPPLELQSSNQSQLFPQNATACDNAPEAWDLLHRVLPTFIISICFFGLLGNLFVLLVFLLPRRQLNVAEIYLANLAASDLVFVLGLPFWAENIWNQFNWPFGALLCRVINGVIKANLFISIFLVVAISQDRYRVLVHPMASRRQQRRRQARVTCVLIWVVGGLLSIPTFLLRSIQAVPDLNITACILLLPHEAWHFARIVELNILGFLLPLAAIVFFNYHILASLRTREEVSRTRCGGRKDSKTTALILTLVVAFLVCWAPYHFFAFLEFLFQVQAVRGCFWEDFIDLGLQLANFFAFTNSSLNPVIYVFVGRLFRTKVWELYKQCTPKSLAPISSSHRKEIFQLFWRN
Nature of the assay: Calcium flux Assay (FLIPR) with recombinant CHO-K1 cells expressing human Bradykinin B1 receptor, in presence (hB1 IC50) or absence (hB1 free IC50) of 0.1% BSA. Type of assay: cell-based. The note with it: in absence of 0.1% BSA, read-out: hB1 free IC50. In general terms: A change in cytosolic calcium serves as a functional read-out for many receptors and channels.
A word on the IC50: it is the concentration that gives 50% inhibition. `O=C(Nc1ccc(-c2ccc(C(F)F)nc2)c(-c2nnn[nH]2)c1)C1(c2ccc(F)cc2)CC1` [Example 268, N-{4-[6-(difluoromethyl)pyridin-3-yl]-3-(1H-tetrazol-5-yl)phenyl}-1-(4-fluorophenyl)cy-cloproapnecarbox-amide]: the half-inhibitory concentration (IC50) worked out at 92 nM.

For `CC(F)(F)c1ccc(-c2ccc(NC(=O)C3(c4ccc(C(F)(F)F)cc4)CC3)cc2-c2nnn[nH]2)cn1` [Example 277, N-{4-[6-(1,1-difluoroethyl)py-ridin-3-yl]-3-(1H-tetrazol-5-yl)phenyl}-1-[4-(trifluoromethyl)phenyl]cyclopro-panecarboxamide], the 50% inhibitory concentration (IC50) worked out at 3.19 nM.

In the case of `Cc1ccc(C2(C(=O)Nc3ccc(-n4cc(C(F)(F)F)cn4)c(-c4nnn[nH]4)c3)CC2)c(F)c1` [Example 368, 1-(2-Fluoro-4-methylphenyl)-N-{3-(1H-tetrazol-5-yl)-4-[4-(trifluoromethyl)-1H-pyrazol-1-yl]phenyl}cyclopro-panecarboxa-mide], the IC50 was 26 nM.

As to `O=C(Nc1ccc(-c2ccnc(C(F)(F)F)c2)c(-c2nnn[nH]2)c1)C1(c2ccc(F)cn2)CC1` [Example 174, 1-(5-fluoropyridin-2-yl)-N-{3-(1H-tetrazol-5-yl)-4-[2-(trifluoromethyl)pyridin-4-yl]phenyl} cyclopropane-carboxamide], the IC50 turned out to be 1110 nM.

Consider `Cc1ncc(-c2ccc(NC(=O)C3(c4cccc(Cl)c4F)CC3)cc2-c2nnn[nH]2)cn1` [Example 195, 1-(3-chloro-2-fluorophenyl)-N-[4-(2-methylpyrimidin-5-yl)-3-(1H-tetrazol-5-yl)phenyl] cyclopropane-carboxamide], for which the IC50 amounted to 183 nM.

As to `CCOc1ccc(-c2ccc(NC(=O)C3(c4cccc(F)c4C)CC3)cc2-c2nnn[nH]2)cn1` [Example 256, N-[4-(6-ethoxypyridin-3-yl)-3-(1H-tetrazol-5-yl)phenyl]-1-(3-fluoro-2-methylphenyl)cy-clopropanecar-boxamide], the IC50 stood at 288 nM.

For the compound `O=C(Nc1ccc(-n2cnc(C(F)(F)F)c2)c(-c2nnn[nH]2)c1)C1(c2cccc(Cl)c2)CC1` [Example 352, 1-(3-Chlorophenyl)-N-{3-(1H-tetrazol-5-yl)-4-[4-(trifluoromethyl)-1H-imidazol-1-yl]phenyl}cyclopro-panecarboxa-mide], the half-maximal inhibitory concentration (IC50) came out at 1200 nM.

For `O=C(Nc1ccc(-c2ccc(C(F)F)nc2)c(-c2nnn[nH]2)c1)C1(c2ccc(OC(F)(F)F)cc2)CC1` [Example 271, N-{4-[6-(difluoromethyl)pyridin-3-yl]-3-(1H-tetrazol-5-yl)phenyl}-1-[4-(trifluoromethoxy)phenyl]cyclo-propanecarboxa-mide], the IC50 worked out at 6.09 nM.

As for `O=C(Nc1ccc(-n2cnc(C(F)(F)F)c2)c(-c2nnn[nH]2)c1)C1(c2ccc(F)c(F)c2)CC1` [Example 356, 1-(3,4-Difluorophenyl)-N-{3-(1H-tetrazol-5-yl)-4-[4-(trifluoromethyl)-1H-imidazol-1-yl]phenyl}cyclopro-panecarboxa-mide], the IC50 worked out at 2350 nM.

As for `O=C(Nc1ccc(-n2cc(C(F)(F)F)cn2)c(-c2nnn[nH]2)c1)C1(c2ccc(C(F)(F)F)cc2F)CC1` [Example 345, 1-[2-Fluoro-4-(trifluoromethyl)phenyl]-N-{3-(1H-tetrazol-5-yl)-4-[4-(trifluoromethyl)-1H-pyrazol-1-yl]phenyl}cyclopropanecarboxamide], the half-maximal inhibitory concentration (IC50) was determined as 28.5 nM.

Regarding `Cc1ccc(C2(C(=O)Nc3ccc(-n4ccc(CC(F)(F)F)n4)c(-c4nnn[nH]4)c3)CC2)c(F)c1` [Example 388, 1-(2-fluoro-4-methylphenyl)-N-{3-(1H-tetrazol-5-yl)-4-[3-(2,2,2-trifluoroethyl)-1H-pyrazol-1-yl]phenyl}cyclopro-panecarboxa-mide], the IC50 was found to be 33.4 nM.

Turning to `O=C(Nc1ccc(-c2ccc(C(F)(F)F)nc2)c(-c2nnn[nH]2)c1)C1(c2cc(F)cc(C(F)(F)F)c2)CC1` [Example 289, 1-[3-fluoro-5-(trifluoromethyl)phenyl]-N-{3-(1H-tetrazol-5-yl)-4-[6-(trifluoromethyl)pyridin-3-yl]phenyl}cyclopro-panecarboxa-mide], the IC50 is 50.2 nM.

`CS(=O)(=O)c1ccc(-c2ccc(NC(=O)C3(c4cccc(Cl)c4)CC3)cc2-c2nnn[nH]2)cn1` [Example 200, 1-(3-chlorophenyl)-N-{4-[6-(methylsulfonyl)pyridin-3-yl]-3-(1H-tetrazol-5-yl)phenyl} cyclopropane-carboxamide]: the IC50 came to 1170 nM.

The same assay, now with this note: in presence of 0.1% BSA, read-out: hB1 IC50.
As to `COc1ccc(-c2ccc(NC(=O)C3(c4c(F)cccc4F)CC3)cc2-c2nnn[nH]2)cc1OC` [Example 29, 1-(2,6-difluorophenyl)-N-[3′,4′-dimethoxy-2-(1H-tetrazol-5-yl)biphenyl-4-yl]cyclopropane carboxamide], the concentration for half-maximal inhibition (IC50) turned out to be 167 nM.

In the case of `COc1ccc(-c2ccc(NC(=O)C3(Cc4ccccc4)CC3)cc2-c2nnn[nH]2)cc1OC` [Example 53, 1-benzyl-N-[3′,4′-dimethoxy-2-(1H-tetrazol-5-yl)biphenyl-4-yl]cyclopropane carboxamide], the IC50 worked out at 514 nM.

As to `O=C(Nc1cc(-c2nnn[nH]2)c(-c2ccc(C(F)(F)F)nc2)cc1O)C1(c2ccc(F)cc2F)CC1` [Example 228, 1-(2,4-Difluorophenyl)-N-{2-hydroxy-5-(1H-tetrazol-5-yl)-4-[6-(trifluoromethyl)pyridin-3-yl]phenyl} cyclopropane-carboxamide], the IC50 amounted to 88.2 nM.

As to `Cc1ncc(-c2ccc(NC(=O)C3(c4cccc(Cl)c4F)CC3)cc2-c2nnn[nH]2)cn1` [Example 195, 1-(3-chloro-2-fluorophenyl)-N-[4-(2-methylpyrimidin-5-yl)-3-(1H-tetrazol-5-yl)phenyl] cyclopropane-carboxamide], the IC50 was 311 nM.

Take `CCOc1ccc(-c2ccc(NC(=O)C3(c4cccc(F)c4C)CC3)cc2-c2nnn[nH]2)cn1` [Example 256, N-[4-(6-ethoxypyridin-3-yl)-3-(1H-tetrazol-5-yl)phenyl]-1-(3-fluoro-2-methylphenyl)cy-clopropanecar-boxamide]: the concentration for half-maximal inhibition (IC50) was 274 nM.

On to `CCOc1ccc(-c2ccc(NC(=O)C3(c4cccc(Cl)c4)CCC3)cc2-c2nnn[nH]2)cn1` [Example 68, 1-(3-chlorophenyl)-N-[4-(6-ethoxypyridin-3-yl)-3-(1H-tetrazol-5-yl)phenyl] cyclobutane-carboxamide], for which the IC50 turned out to be 1410 nM.

With `COc1ccc(-c2ccc(NC(=O)C3(c4cccc(Cl)n4)CC3)cc2-c2nnn[nH]2)cc1OC` [Example 50, 1-(6-chloropyridin-2-yl)-N-[3′,4′-dimethoxy-2-(1H-tetrazol-5-yl)biphenyl-4-yl]cyclopropane carboxamide], the IC50 worked out at 310 nM.

Regarding `COc1ccc(-c2ccc(NC(=O)C3(c4ccc(F)cc4)CC3)cc2-c2nnn[nH]2)cc1OC` [Example 11, N-[3′,4′-dimethoxy-2-(1H-tetrazol-5-yl)biphenyl-4-yl]-1-(4-fluorophenyl) cyclopropane-carboxamide], the IC50 turned out to be 43 nM.

For `O=C(Nc1cc(-c2nnn[nH]2)c(-c2ccc(C(F)(F)F)nc2)cc1O)C1(c2cccc(Cl)c2)CC1` [Example 262, 1-(3-chlorophenyl)-N-{2-hydroxy-5-(1H-tetrazol-5-yl)-4-[6-(trifluoromethyl)pyridin-3-yl]phenyl}cyclopro-panecarboxa-mide], the IC50 stood at 72.3 nM.

In the case of “1-(3- chlorophenyl)- N-[4′- (methoxymethyl)- 2-(1H- tetrazol-5- yl(biphenyl-4- yl]cyclopropane carboxamide [Example 123]”, the IC50 amounted to 645 nM.

Turning to `COc1ccc(-c2ccc(NC(=O)C3(c4cc(C(F)(F)F)ccc4F)CC3)cc2-c2nnn[nH]2)cc1OC` [Example 27, N-[3′,4′-dimethoxy-2-(1H-tetrazol-5-yl)biphenyl-4-yl]-1-[2-fluoro-5-(trifluoromethyl)phenyl] cyclopropane-carboxamide], the concentration for half-maximal inhibition (IC50) turned out to be 51.5 nM.
